Laboratory results from patent US7354911B2, “1,3-benzodioxol compound and use of same” (Sumitomo Chemical Company, Limited, priority 2006, dated 2008).

System: Musca domestica
Assay: Topical application of acetone solution to female adult Musca domestica, mortality after 24 hours
Assay type: in vivo
Settings: 0.5 μL acetone solution on back of chest region, 25° C.
Experimental: After mixing the present compounds (1), (2), (3), (4), (5), and (6) with d-allethrin respectively, acetone solutions containing each mixture with the respective prescribed concentrations (w/v) listed in Table 2 were prepared. An adult Musca domestica was applied with 0.5 μL of the acetone solution dropped on the back side of its chest region, transferred to a plastic cup having about 9 cm diameter and about 4.5 cm height, and then left at 25° C. with being fed by 5% of aqueous sugar solution. […] The number of the Musca domesticas contained in each cup was 10, and the test was repeated twice.
Furthermore, after preparing acetone solutions containing each of the present compounds (1), (2), (3), (4), (5), and (6) and d-allethrin in the respective prescribed concentrations (w/v) listed in Table 2, a test was conducted as the same manner mentioned above.
For comparison, with using 4,5-methylenedioxy-2-propylphenyl2-butoxyethyl ether (hereinafter, referred to as a comparative compound)
[drawing 16] in place of the present compounds, a test was conducted in the same manner.

[1] = test compound 1.25 % (w/v) alone, d-allethrin 0 % (w/v)
[2] = test compound 1.25 % (w/v) mixed with d-allethrin 0.25 % (w/v)

C=CCC1=C(C)C(OC(=O)C2C(C=C(C)C)C2(C)C)CC1=O (stereo not drawn) [d-allethrin, reference compound]
mortality ratio (d-allethrin 0.25 % (w/v) alone, no test compound): 0%

C=CCc1cc2c(cc1OCCOCCC)OCO2 [The present compound (5), 5-{2-(propyloxy)ethoxy}-6-(2-propenyl)-1,3-benzodioxol]
mortality ratio [1]: 0%
mortality ratio [2]: 90%

CCCc1cc2c(cc1OCCOCC)OCO2 [The present compound (4), 5-(2-ethoxyethoxy)-6-propyl-1,3-benzodioxol]
mortality ratio [1]: 0%
mortality ratio [2]: 100%

C=CCc1cc2c(cc1OCCOCC)OCO2 [The present compound (3), 5-(2-ethoxyethoxy)-6-(2-propenyl)-1,3-benzodioxol]
mortality ratio [1]: 0%
mortality ratio [2]: 100%

CCCCOCCOc1cc2c(cc1CCC)OCO2 [Comparative compound, 4,5-methylenedioxy-2-propylphenyl2-butoxyethyl ether, reference compound]
mortality ratio [1]: 0%
mortality ratio [2]: 55%

CCCOCCOc1cc2c(cc1CCC)OCO2 [The present compound (6), 5-{(2-propyloxy)ethoxy}-6-propyl-1,3-benzodioxol]
mortality ratio [1]: 0%
mortality ratio [2]: 80%

CCCc1cc2c(cc1OCCOC)OCO2 [The present compound (2), 5-(2-methoxyethoxy)-6-propyl-1,3-benzodioxol]
mortality ratio [1]: 0%
mortality ratio [2]: 90%

C=CCc1cc2c(cc1OCCOC)OCO2 [The present compound (1), 5-(2-methoxyethoxy)-6-(2-propenyl)-1,3-benzodioxol]
mortality ratio [1]: 0%
mortality ratio [2]: 100%
